Laboratory results taken from paper PMC11601558, “SLC6A19 inhibition facilitates urinary neutral amino acid excretion and lowers plasma phenylalanine” (JCI Insight, 2024).

Tested on: healthy volunteers
Experiment: Plasma amino acid levels in healthy volunteers (MAD)
Assay type: in vivo, human
Protocol: The effect of JNT-517 on plasma and urine AA levels was measured using an ultra-performance liquid chromatography mass spectrometry assay following 6-aminoquinolyl-N-hydroxysuccinimidyl carbamate (AQC) derivatization. For the SAD study, plasma samples were collected on day –1 and day 1 predose, as well as 24, 48, and 72 hours after dosing. A first morning void urine sample on Days –1 and 1 predose, as well as 2 pooled urine samples 0–8 hours after and 8–24 hours after dose were also collected following study drug administration. For the MAD study, plasma samples were collected on day –1, 1, 7, and 14 predose, as well as day 14, 24 hours after dosing. A first morning void urine samples on day –1, 1, 7, and 14 as well as 2 pooled urine samples 0–8 hours and 8–24 hours after dose on days 1, 7, and 14 were also collected following JNT-517 or placebo administration. Study participants in SAD and MAD cohorts were dosed in the morning following an overnight fast of at least 8 hours and were provided the following meals in relation to dosing times: breakfast after the morning dose, lunch 4 hours after morning dose, optional snack in the afternoon 8 hours after the morning dose and after the second dose for MAD cohorts dosed BID, dinner approximately 10 hours after the morning dose and at least 2 hours after the second dose for MAD cohorts dosed BID. Predose plasma amino acids were drawn after a minimum of 8 hours fasting overnight and after-dose levels were drawn after > 1.5 hours fasting. Resulting plasma and urine amino acid concentration measurements, as well a total amino acid excretion over a time period were summarized using appropriate descriptive statistics and compared with either predose levels or placebo-dose values. Tryptophan was not included in the amino acid panel due to analytical limitations.

**Q.** What does the source list for NC(=O)N1CCC[C@@H](N(C(=O)NCc2ccc(OC(F)(F)F)cc2F)C2CC2)C1 [JNT-517]?
**A.** number of subjects with plasma Alanine below lower limit of normal (MAD 25 mg BID, Post-dose): 0; number of subjects with plasma Arginine below lower limit of normal (MAD 25 mg BID, Post-dose): 0; number of subjects with plasma Asparagine below lower limit of normal (MAD 25 mg BID, Post-dose): 0; number of subjects with plasma Cystine below lower limit of normal (MAD 25 mg BID, Post-dose): 5; number of subjects with plasma Glutamate below lower limit of normal (MAD 25 mg BID, Post-dose): 0; number of subjects with plasma Glutamine below lower limit of normal (MAD 25 mg BID, Post-dose): 0; number of subjects with plasma Glycine below lower limit of normal (MAD 25 mg BID, Post-dose): 0; number of subjects with plasma Isoleucine below lower limit of normal (MAD 25 mg BID, Post-dose): 0; number of subjects with plasma Leucine below lower limit of normal (MAD 25 mg BID, Post-dose): 0; number of subjects with plasma Lysine below lower limit of normal (MAD 25 mg BID, Post-dose): 0; number of subjects with plasma Methionine below lower limit of normal (MAD 25 mg BID, Post-dose): 0; number of subjects with plasma Phenylalanine below lower limit of normal (MAD 25 mg BID, Post-dose): 0; number of subjects with plasma Proline below lower limit of normal (MAD 25 mg BID, Post-dose): 0; number of subjects with plasma Serine below lower limit of normal (MAD 25 mg BID, Post-dose): 0; number of subjects with plasma Threonine below lower limit of normal (MAD 25 mg BID, Post-dose): 0; number of subjects with plasma Tyrosine below lower limit of normal (MAD 25 mg BID, Post-dose): 0; number of subjects with plasma Valine below lower limit of normal (MAD 25 mg BID, Post-dose): 0; number of subjects with plasma Alanine below lower limit of normal (MAD 75 mg BID, Post-dose): 0; number of subjects with plasma Arginine below lower limit of normal (MAD 75 mg BID, Post-dose): 0; number of subjects with plasma Asparagine below lower limit of normal (MAD 75 mg BID, Post-dose): 0; number of subjects with plasma Cystine below lower limit of normal (MAD 75 mg BID, Post-dose): 0; number of subjects with plasma Glutamate below lower limit of normal (MAD 75 mg BID, Post-dose): 0; number of subjects with plasma Glutamine below lower limit of normal (MAD 75 mg BID, Post-dose): 0; number of subjects with plasma Glycine below lower limit of normal (MAD 75 mg BID, Post-dose): 0; number of subjects with plasma Isoleucine below lower limit of normal (MAD 75 mg BID, Post-dose): 0; number of subjects with plasma Leucine below lower limit of normal (MAD 75 mg BID, Post-dose): 0; number of subjects with plasma Lysine below lower limit of normal (MAD 75 mg BID, Post-dose): 0; number of subjects with plasma Methionine below lower limit of normal (MAD 75 mg BID, Post-dose): 0; number of subjects with plasma Phenylalanine below lower limit of normal (MAD 75 mg BID, Post-dose): 0; number of subjects with plasma Proline below lower limit of normal (MAD 75 mg BID, Post-dose): 0; number of subjects with plasma Serine below lower limit of normal (MAD 75 mg BID, Post-dose): 0; number of subjects with plasma Threonine below lower limit of normal (MAD 75 mg BID, Post-dose): 0; number of subjects with plasma Tyrosine below lower limit of normal (MAD 75 mg BID, Post-dose): 0; number of subjects with plasma Valine below lower limit of normal (MAD 75 mg BID, Post-dose): 0; number of subjects with plasma Alanine below lower limit of normal (MAD 150 mg QD, Post-dose): 0; number of subjects with plasma Arginine below lower limit of normal (MAD 150 mg QD, Post-dose): 0; number of subjects with plasma Asparagine below lower limit of normal (MAD 150 mg QD, Post-dose): 0; number of subjects with plasma Cystine below lower limit of normal (MAD 150 mg QD, Post-dose): 5; number of subjects with plasma Glutamate below lower limit of normal (MAD 150 mg QD, Post-dose): 0; number of subjects with plasma Glutamine below lower limit of normal (MAD 150 mg QD, Post-dose): 0; number of subjects with plasma Glycine below lower limit of normal (MAD 150 mg QD, Post-dose): 0; number of subjects with plasma Isoleucine below lower limit of normal (MAD 150 mg QD, Post-dose): 0; number of subjects with plasma Leucine below lower limit of normal (MAD 150 mg QD, Post-dose): 0; number of subjects with plasma Lysine below lower limit of normal (MAD 150 mg QD, Post-dose): 0; number of subjects with plasma Methionine below lower limit of normal (MAD 150 mg QD, Post-dose): 0; number of subjects with plasma Phenylalanine below lower limit of normal (MAD 150 mg QD, Post-dose): 0; number of subjects with plasma Proline below lower limit of normal (MAD 150 mg QD, Post-dose): 0; number of subjects with plasma Threonine below lower limit of normal (MAD 150 mg QD, Post-dose): 0; number of subjects with plasma Valine below lower limit of normal (MAD 150 mg QD, Post-dose): 0; number of subjects with plasma Serine below lower limit of normal (MAD 150 mg QD, Post-dose (16.7%)): 1; number of subjects with plasma Tyrosine below lower limit of normal (MAD 150 mg QD, Post-dose (33.3%)): 2
